Literature values, collected in US5559121A, “Rapamycin formulations for oral administration” (American Home Products Corporation, priority 1995, dated 1996).

Legend:
[1] = system: Candida albicans
[2] = system: insulin dependent diabetes mellitus; details: Fifth Int. Conf. Inflamm. Res. Assoc. 121 (1990)
[3] = system: Microsporum gypseum
[4] = system: IgE-like antibodies; details: Martel 1977
[5] = in vivo
[6] = system: smooth muscle cell proliferation and intimal thickening; details: Morris 1992
[7] = system: tumor; details: U.S. Pat. No. 4,885,171 (alone); U.S. Pat. No. 4,401,653 (with picibanil)
[8] = system: adjuvant arthritis; details: Martel 1977
[9] = FASEB 3, 3411 (1989) and others
[10] = system: thymocyte proliferation; details: in vitro
[11] = system: experimental allergic encephalomyelitis; details: Martel 1977
[12] = system: allograft rejection; details: Calne 1989; Morris and Meiser 1989

Structure (SMILES): CO[C@H]1C[C@@H]2CC[C@@H](C)[C@@](O)(O2)C(=O)C(=O)N2CCCC[C@H]2C(=O)O[C@H]([C@H](C)C[C@@H]2CC[C@@H](O)[C@H](OC)C2)CC(=O)[C@H](C)/C=C(\C)[C@@H](O)[C@@H](OC)C(=O)[C@H](C)C[C@H](C)/C=C/C=C/C=C/1C [Rapamycin, rapamycin]
- effect on growth of Candida albicans [1]: adversely affects the growth
- preventing or treating insulin dependent diabetes mellitus [2]: useful in preventing or treating
- effect on growth of Microsporum gypseum [3]: adversely affects the growth
- inhibition of the formation of IgE-like antibodies [4]: effectively inhibited the formation of IgE-like antibodies
- immunosuppressive, antifungal and antiinflammatory activity [5]: immunosuppressive, antifungal and antiinflammatory activity in vivo
- preventing or treating smooth muscle cell proliferation and intimal thickening following vascular injury [6]: useful in preventing or treating
- antitumor activity [7]: antitumor activity
- effectiveness in adjuvant arthritis model [8]: effective
- immunosuppressive effects [9]: immunosuppressive effects
- inhibition of thymocyte proliferation [10]: inhibit thymocyte proliferation in vitro
- effectiveness in experimental allergic encephalomyelitis model [11]: effective
- inhibiting rejection in vivo in allograft transplantation [12]: effectiveness of rapamycin in inhibiting rejection in vivo

Structure (SMILES): C=CC[C@@H]1/C=C(\C)C[C@H](C)C[C@H](OC)[C@H]2O[C@@](O)(C(=O)C(=O)N3CCCC[C@H]3C(=O)O[C@H](/C(C)=C/[C@@H]3CC[C@@H](O)[C@H](OC)C3)[C@H](C)[C@@H](O)CC1=O)[C@H](C)C[C@@H]2OC [FK-506]
- immunosuppressive effects [9]: effective as immunosuppressive agents
